Test results as given in patent US20260097111A1, “ETHER LIPIDS FOR HYPERACTIVATION OF MAMMALIAN DENDRITIC CELLS” (priority 2022, published 2026).

Key:
human moDC = test: IL-1β ELISA, human moDC treated with R848, DGP, MCC950; type: cell-based
Description: Monocyte Isolation, Storage, and Differentiation into moDC. Human leukapheresis blood products were freshly obtained from AllCells via same day or overnight shipping at 4° C. Miltenyi StraightFrom Leukopak CD14 MicroBead isolation kits were used according to manufacturer instructions to isolate CD14+ monocytes. Briefly, leukopaks ranging in quantity from 5×10^9 to 1×10^10 total nucleated cells were evenly aliquoted into 50 mL conical tubes. Cells were incubated with CD14 microbeads and then loaded on the MultiMACS using the program “Possel2”. After washing out the negative population, CD14+ cells were eluted from the columns and counted. An aliquot of monocytes was used to stain for purity of cells to ensure that isolated live cells were […] CD11c+CD14+ by flow cytometry. […] Vials were placed in CoolCell freezing containers and placed in a −80° C. freezer and stored no longer than 1 week. Frozen cells were transferred for long-term storage to the vapor phase of a liquid nitrogen freezer until use.
To differentiate monocytes into moDC, vials of cells were taken out of the liquid nitrogen freezer and quickly thawed in a 37° C. water bath. Cells were diluted ten-fold in warmed R10++ media containing 50 units/mL benzonase. R10++ media was composed of RPMI 1640 media containing 10% fetal bovine serum, 50 units/mL penicillin, […] streptomycin, 2 mM L-glutamine, 1 mM sodium pyruvate, […] beta-mercaptoethanol, 10 mM HEPES, and 1% Gibco MEM non-essential amino acids. After gentle mixing by inversion of tubes, cells were incubated at 37° C. for 10 min. Cells were pelleted at 400×g for 5 min and supernatant was aspirated. Cells were resuspended in R10++ media and counted on the MoxiGo by diluting an aliquot in PBS containing a final concentration of 2.5 μg/mL propidium iodide. Cells were plated in T75 culture flasks at 3-6×10^7 cells per flask in a total of 20 mL R10++ media containing a final concentration of 50 ng/mL GM-CSF and 25 ng/mL IL-4. Three days after the start of culture, an additional 10 mL R10++ containing 50 ng/mL GM-CSF and 25 ng/mL IL-4 was added to each flask.
Six days after start of differentiation. R10++ media containing cells were placed into 50 mL conical tubes. Flasks were washed with an additional 10 mL PBS and also collected. […] Cells were resuspended in R10++ media and counted on the MoxiGo by diluting an aliquot in PBS containing a final concentration of 2.5 μg/mL propidium iodide. Cells were then adjusted to 1×10^6 cells/mL in R10++ media.
moDC Treatment. Human moDC were plated at 1×10^5 cells/well in 96-well flat-bottom tissue culture plates in R10++ media by adding 100 μL of cells per well. To each well, a 25 μL solution of R10++ containing 400 ng/mL GM-CSF and 200 ng/mL IL-4 was added.
Lyophilized R848 stocks were prepared as described above and frozen at −80° C. An aliquot of frozen R848 was thawed and further diluted to 11.4 μM in R10++ (4 μg/mL R848). Cell culture conditions receiving R848 treatment had 50 μL added to wells. For wells not receiving R848, 50 μL R10++ was added to wells. Lyophilized MCC950 was prepared as described above and stored at −20° C. MCC950 was further diluted to 40 uM in a prepared R10++ solution containing 11.4 μM R848. Cells receiving R848 and MCC950 treatment had 50 μL added to wells. Final concentrations of R848 and MCC950 in a total 200 μL volume were respectively 2.85 μM and 10 μM.
A4.44% solution of KP407 dissolved in sterile, distilled water was prepared at a temperature of 4° C. […]

[1] = test system: myeloid cells in dLN and spleen; test: Myeloid cells in dLN and spleen after SC injection (flow cytometry); type: in vivo, mice
Source text: dLN Dissection and Dissociation. […] The dLN were then transported on ice to Corner Therapeutics labs. The dLN was then processed using a Miltenyi spleen dissociation kit according to manufacturer's protocol. In brief, the dLN from each mouse was transferred into the gentleMACS C Tube containing the enzyme mix. The dLN were then dissociated using the gentleMACS Program 37C_m_SDK_1. Cell suspensions were then collected and filtered through a 30 μm Pre-Separation Filter. Cells were counted using the Moxi automated counter, then resuspended in 400 ul of FACS buffer for cell staining.
Spleen Dissection and Dissociation. […] The spleen samples were then transported on ice to Corner Therapeutics labs. Spleen samples were then processed a Miltenyi spleen dissociation kit according to manufacturer's protocol. In brief, each spleen was transferred into the gentleMACS C Tube containing the enzyme mix. The spleens were then dissociated using the gentleMACS program 37C_m_SDK_1. ACK lysis was performed for 2 min. Cell suspensions were then collected and filtered through a 30 μm Pre-Separation Filter. Cells were counted using the Moxi automated counter, then resuspended in 400 ul of FACS buffer for cell staining.
Flow Cytometry. Single cell suspension from the draining lymph or spleen were resuspended in 100 μL PBS containing Live/Dead Violet (1:1000) and incubated for 20 min at 4° C. Cells were then washed and resuspend in 100 μL FACS buffer containing Fc block (1:100) for 10 min. For myeloid cell staining, cells were then resuspended in 100 μL of antibodies detailed in Table 13-1 to identify monocytes as CD11b^+ Ly6C^+F4/80^neg MHC^neglive cells, moDCs as CD11b^+ Ly6C^+F4/80^neg MHC^+ live cells, macrophages as F4/80^+ MHC^+CD24^neg live cells, and DCs as CD11c^+MHC-II^+ F4/80^neg live cells. Counter Bright counting beads were added before the acquisition of samples.

## CCCCCCCCCCCCCCCCCCCCCCOC[C@@H](O)COP(=O)(O)O [Compound 2, 1-docosyl-sn-glycerol-3-phosphate]
Human moDC; donor HD94
  concentration of DGP sufficient in combination with R848 to significantly increase IL-1β secretion: 20.6 µM
Human moDC; donor HD95
  concentration of DGP sufficient in combination with R848 to significantly increase IL-1β secretion: 82.5 µM
Human moDC; donors HD93 and HD96
  concentration of DGP sufficient in combination with R848 to significantly increase IL-1β secretion: at least 41.3 uM
Human moDC; without addition of R848, DGP 0-82.5 μM, overnight, FIG. 21
  IL-1β: less than 100 μg/mL
[1]; 4 hours post SC injection vs PBS, FIG. 50A
  absolute number of monocytes in the dLN: did not induce an increase in the absolute number of cells in the dLN at 4 hours
[1]; 4 hours post SC injection vs PBS, FIG. 50B
  absolute number of moDCs in the dLN: did not induce an increase in the absolute number of moDCs in the dLN
[1]; 4 hours post SC injection vs PBS, FIG. 52A-D
  CD69 MFI on myeloid cells in the dLN: did not induce CD69 upregulation on myeloid cells in the dLN
[1]; 4 hours post SC injection vs PBS, FIG. 53A-D
  CD69 MFI on myeloid cells in the spleen: did not induce the upregulation of CD69 on myeloid cells in the spleen
[1]; 4 hours post SC injection, FIG. 54A-B
  CCR7 MFI on DCs in the dLN and spleen: did not induce the upregulation of CCR7
[1]; 48 hours post SC injection vs PBS, FIG. 51A
  monocytes in the spleen: decreased the levels of monocytes in the spleen
[1]; 48 hours post SC injection, FIG. 50C-D
  abundance of macrophages and cDCs in the dLN: did not increase
